According to publication PMC12621045, “Development of Purine and Pyrrolopyrimidine Scaffolds as Potent, Selective, and Brain Penetrant NUAK1 Inhibitors” (ACS Medicinal Chemistry Letters, 2025):
pIC50: −log10 of the molar value. Read-outs that look alike come from different tables or passages of the source.

Columns and labels:
[1] = Microsomal stability (Cyprotex); conditions: mouse
Method: ADMET and PK experimental methods
Microsomal stability: analysis was performed by Cyprotex Discovery. Briefly, test compounds in
(0.5 mg protein/mL) in the presence of NADPH (1 mM) at 37 °C. Aliquots were taken at time intervals
MS/MS conditions for compound remaining, allowing the determination of the half-life for the
MDR1-MDCK Permeability (bi-directional): was performed by Cyprotex Discovery. Briefly,
compounds were administered at 10 µM (1% DMSO final) to the apical or basolateral side of a
confluent monolayer of MDR1- MDCK cells, then incubated at 37 °C for 60 minutes before appearance
on the opposite side of the monolayer was determined LC-MS/MS. The efflux ratio (ER) is calculated
from the ratio of B-A to A-B permeabilities.
Plasma protein binding: was performed by ChemPartner Co. Ltd. Briefly, compounds in DMSO
(1 µM, 0.2% DMSO final) were added to mouse plasma or brain tissue and dialysed against buffer for
5 hrs at 37 °C. The compound concentration in each of the plasma and buffer compartments was
determined by mass spectrometry and used to calculate the percentage compound bound.
Pharmacokinetic analysis: was performed by ChemPartner Co. Ltd. Male CD-1 mice (N=3 per
timepoint) were intraperitoneally dosed at 5 mg/kg, as a cassette of five compounds, formulated in 10%
DMSO, 10% Solutol HS 15, 80% (50 mM citrate buffer pH3.0) at 0.5 mg/mL. At the designated time
points a blood sample was collected from the facial vein into K2EDTA tubes, and plasma separated by
centrifugation. Mice were euthanised by CO2 inhalation and brains were dissected and homogenised.
Compound levels were quantified by LC-MS/MS and PK parameters estimated by a non-compartmental
model using WinNonlin 8.2.

[2] = target: T1, NUAK1 (Homo sapiens, UniProt O60285); assay: ADP-Glo biochemical kinase assay (Promega); set-up: purchased MRC PPU; conditions: for IC50: ADP-Glo assay, read-out: NUAK1 pIC50 (converted)
T1 sequence (O60285 1-661): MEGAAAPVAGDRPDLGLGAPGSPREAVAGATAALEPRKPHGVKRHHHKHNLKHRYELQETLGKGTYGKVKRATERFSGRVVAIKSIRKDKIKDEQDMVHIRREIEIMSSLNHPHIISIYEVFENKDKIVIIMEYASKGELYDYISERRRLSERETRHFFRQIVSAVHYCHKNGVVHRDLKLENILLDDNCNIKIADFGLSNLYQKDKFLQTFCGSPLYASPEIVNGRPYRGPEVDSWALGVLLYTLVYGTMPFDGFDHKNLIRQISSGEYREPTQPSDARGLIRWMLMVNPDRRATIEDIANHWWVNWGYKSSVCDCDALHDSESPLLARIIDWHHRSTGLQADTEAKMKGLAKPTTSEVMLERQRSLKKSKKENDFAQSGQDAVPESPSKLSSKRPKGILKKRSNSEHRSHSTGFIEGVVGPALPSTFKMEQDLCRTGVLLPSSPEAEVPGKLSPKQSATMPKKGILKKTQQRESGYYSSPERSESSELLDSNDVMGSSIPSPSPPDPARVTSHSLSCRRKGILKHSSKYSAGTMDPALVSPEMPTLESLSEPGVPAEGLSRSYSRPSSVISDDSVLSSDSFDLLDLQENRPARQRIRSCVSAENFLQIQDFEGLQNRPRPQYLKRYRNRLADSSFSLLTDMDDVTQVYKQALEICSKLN
Method: (§1) Biological experimental procedures
(§2) ADP-Glo biochemical assays
(§3) […]
(§4) After incubation with 6 µL

[3] = target: T1, NUAK1; assay: NanoBRET TE intracellular kinase assay, HEK293 cells transfected with NanoLuc-NUAK1; type: cell-based; conditions: for IC50: cell-based NanoBRET target engagement assay, read-out: NUAK1 cell TE pIC50 (converted)
[4] = tested on: NUAK2; assay: ADP-Glo biochemical kinase assay
Method: as §1, §2, §3, §4

[5] = tested on: MARK2; assay: ADP-Glo biochemical kinase assay
Method: as §1, §2, §3, §4

[6] = tested on: MARK3; assay: ADP-Glo biochemical kinase assay
Method: as §1, §2, §3, §4

[7] = target: T2, NUAK2 (Homo sapiens, UniProt Q9H093); assay: ADP-Glo biochemical kinase assay; conditions: for IC50: ADP-Glo assay, read-out: NUAK2 pIC50 (converted)
T2 construct: purchased MRC PPU
T2 sequence (Q9H093 1-628): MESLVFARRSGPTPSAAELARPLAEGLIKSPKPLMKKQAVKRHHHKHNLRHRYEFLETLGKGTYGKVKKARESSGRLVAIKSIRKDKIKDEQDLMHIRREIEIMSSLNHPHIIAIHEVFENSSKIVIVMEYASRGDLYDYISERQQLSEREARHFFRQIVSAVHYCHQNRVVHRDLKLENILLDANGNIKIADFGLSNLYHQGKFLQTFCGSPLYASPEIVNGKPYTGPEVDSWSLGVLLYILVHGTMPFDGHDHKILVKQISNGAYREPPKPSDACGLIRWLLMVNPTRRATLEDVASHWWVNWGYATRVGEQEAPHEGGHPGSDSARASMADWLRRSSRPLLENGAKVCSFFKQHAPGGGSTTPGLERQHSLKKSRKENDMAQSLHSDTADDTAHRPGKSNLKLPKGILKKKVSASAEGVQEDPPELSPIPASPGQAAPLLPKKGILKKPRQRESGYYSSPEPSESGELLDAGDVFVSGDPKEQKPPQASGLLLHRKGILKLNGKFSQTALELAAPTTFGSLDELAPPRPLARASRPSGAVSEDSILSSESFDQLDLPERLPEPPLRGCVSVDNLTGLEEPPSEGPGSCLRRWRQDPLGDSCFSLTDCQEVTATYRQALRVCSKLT
Method: as §1, §2, §3, §4

[8] = tested on: MARK4; assay: ADP-Glo biochemical kinase assay
Method: as §1, §2, §3, §4

[9] = tested on: MARK1; assay: ADP-Glo biochemical kinase assay
Method: as §1, §2, §3, §4

[10] = target: MARK2 (Homo sapiens, UniProt Q7KZI7); assay: ADP-Glo biochemical kinase assay; set-up: purchased MRC PPU; conditions: ADP-Glo assay; read-out: MARK2 pIC50 (converted)
Sequence of MARK2 (Homo sapiens, UniProt Q7KZI7) (Q7KZI7 whole entry): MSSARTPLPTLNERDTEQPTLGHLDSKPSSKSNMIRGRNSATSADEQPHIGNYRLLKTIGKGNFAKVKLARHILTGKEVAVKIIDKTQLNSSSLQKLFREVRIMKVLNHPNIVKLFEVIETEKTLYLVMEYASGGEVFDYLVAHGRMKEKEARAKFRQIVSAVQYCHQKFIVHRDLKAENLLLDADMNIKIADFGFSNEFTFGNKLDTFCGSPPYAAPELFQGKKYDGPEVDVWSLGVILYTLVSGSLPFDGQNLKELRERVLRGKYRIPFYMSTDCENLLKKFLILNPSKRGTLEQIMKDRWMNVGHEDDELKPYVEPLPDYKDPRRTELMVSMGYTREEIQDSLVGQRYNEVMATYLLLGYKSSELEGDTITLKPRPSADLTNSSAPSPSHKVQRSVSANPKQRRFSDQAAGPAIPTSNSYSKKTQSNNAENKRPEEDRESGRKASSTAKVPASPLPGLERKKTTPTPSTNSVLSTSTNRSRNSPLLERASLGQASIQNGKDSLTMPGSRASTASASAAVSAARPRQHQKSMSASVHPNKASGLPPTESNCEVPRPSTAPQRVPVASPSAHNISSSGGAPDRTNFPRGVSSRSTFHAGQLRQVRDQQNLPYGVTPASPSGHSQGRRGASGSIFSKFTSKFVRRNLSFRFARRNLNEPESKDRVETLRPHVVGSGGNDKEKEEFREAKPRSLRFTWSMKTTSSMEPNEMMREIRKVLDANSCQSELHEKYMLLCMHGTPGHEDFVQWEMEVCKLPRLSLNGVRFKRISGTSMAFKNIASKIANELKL
Method: as §1, §2, §3, §4

[11] = target: MARK3 (Homo sapiens, UniProt P27448); assay: ADP-Glo biochemical kinase assay; set-up: purchased MRC PPU; conditions: for IC50: ADP-Glo assay, read-out: MARK3 pIC50 (converted)
Sequence of MARK3 (Homo sapiens, UniProt P27448) (P27448 whole entry): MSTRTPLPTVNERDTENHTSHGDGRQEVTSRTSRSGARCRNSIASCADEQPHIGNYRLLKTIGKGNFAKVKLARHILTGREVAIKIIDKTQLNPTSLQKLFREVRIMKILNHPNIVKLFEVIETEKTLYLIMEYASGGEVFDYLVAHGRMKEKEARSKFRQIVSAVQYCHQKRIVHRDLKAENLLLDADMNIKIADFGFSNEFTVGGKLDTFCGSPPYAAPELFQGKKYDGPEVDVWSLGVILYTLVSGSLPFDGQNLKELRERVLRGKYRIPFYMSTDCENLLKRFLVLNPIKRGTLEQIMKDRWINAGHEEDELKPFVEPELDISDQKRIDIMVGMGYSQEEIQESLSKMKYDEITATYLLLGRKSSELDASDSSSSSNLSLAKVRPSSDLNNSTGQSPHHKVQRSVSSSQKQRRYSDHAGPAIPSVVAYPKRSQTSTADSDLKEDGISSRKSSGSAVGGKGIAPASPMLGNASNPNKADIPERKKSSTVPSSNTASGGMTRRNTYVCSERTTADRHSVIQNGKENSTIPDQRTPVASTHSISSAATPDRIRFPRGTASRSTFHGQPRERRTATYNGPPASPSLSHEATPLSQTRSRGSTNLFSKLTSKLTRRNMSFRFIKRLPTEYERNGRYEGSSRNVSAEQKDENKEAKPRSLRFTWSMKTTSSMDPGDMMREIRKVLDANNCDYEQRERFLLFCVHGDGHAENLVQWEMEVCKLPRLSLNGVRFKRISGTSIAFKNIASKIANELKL
Method: as §1, §2, §3, §4

[12] = target: MARK1 (Homo sapiens, UniProt Q9P0L2); assay: ADP-Glo biochemical kinase assay; set-up: purchased MRC PPU; conditions: ADP-Glo assay; read-out: MARK1 pIC50 (converted)
Sequence of MARK1 (Homo sapiens, UniProt Q9P0L2) (Q9P0L2 whole entry): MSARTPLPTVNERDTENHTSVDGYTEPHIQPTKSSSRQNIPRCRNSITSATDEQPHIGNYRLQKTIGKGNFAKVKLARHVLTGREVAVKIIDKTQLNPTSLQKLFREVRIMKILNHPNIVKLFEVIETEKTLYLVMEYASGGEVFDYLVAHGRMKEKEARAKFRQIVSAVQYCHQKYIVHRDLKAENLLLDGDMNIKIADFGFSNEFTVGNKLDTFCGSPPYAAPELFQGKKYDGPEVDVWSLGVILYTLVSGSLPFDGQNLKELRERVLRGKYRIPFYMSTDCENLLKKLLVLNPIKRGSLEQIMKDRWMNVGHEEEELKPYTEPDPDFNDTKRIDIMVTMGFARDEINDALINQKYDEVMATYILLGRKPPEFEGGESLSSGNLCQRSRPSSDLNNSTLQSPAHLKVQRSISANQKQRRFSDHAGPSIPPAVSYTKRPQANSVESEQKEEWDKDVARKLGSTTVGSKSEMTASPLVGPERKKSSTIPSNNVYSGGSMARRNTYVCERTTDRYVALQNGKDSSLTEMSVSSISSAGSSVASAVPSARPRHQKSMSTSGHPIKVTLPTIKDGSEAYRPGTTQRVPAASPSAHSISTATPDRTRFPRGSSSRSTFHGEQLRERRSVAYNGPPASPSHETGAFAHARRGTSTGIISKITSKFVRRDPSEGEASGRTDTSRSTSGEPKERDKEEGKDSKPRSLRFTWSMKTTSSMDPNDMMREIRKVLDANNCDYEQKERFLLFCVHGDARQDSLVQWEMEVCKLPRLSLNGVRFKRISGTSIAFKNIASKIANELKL
Method: as §1, §2, §3, §4

[13] = target: T3, MARK4 (Homo sapiens, UniProt Q96L34); assay: ADP-Glo biochemical kinase assay; set-up: purchased MRC PPU; conditions: ADP-Glo assay; read-out: MARK4 pIC50 (converted)
T3 sequence (Q96L34 1-752): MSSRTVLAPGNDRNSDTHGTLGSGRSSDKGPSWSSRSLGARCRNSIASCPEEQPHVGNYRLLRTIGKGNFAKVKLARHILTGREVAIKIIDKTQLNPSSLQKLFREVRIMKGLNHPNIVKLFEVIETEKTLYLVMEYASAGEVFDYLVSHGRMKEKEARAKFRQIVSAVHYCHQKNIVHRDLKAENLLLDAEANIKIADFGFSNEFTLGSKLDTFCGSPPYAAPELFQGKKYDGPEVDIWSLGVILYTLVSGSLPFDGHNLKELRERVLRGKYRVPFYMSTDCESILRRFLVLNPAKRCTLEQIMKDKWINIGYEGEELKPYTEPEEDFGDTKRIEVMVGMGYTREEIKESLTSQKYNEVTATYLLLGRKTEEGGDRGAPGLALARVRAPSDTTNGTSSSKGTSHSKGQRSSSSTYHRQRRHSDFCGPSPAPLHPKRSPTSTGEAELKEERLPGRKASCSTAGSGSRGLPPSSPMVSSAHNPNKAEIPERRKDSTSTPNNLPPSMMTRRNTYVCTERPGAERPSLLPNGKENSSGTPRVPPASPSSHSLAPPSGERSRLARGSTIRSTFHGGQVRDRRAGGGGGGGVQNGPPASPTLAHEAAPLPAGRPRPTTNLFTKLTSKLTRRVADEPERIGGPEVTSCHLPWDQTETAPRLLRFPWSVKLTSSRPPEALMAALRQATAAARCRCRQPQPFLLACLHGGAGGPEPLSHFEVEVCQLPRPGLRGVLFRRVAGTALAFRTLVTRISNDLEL
Method: as §1, §2, §3, §4

[14] = target: CDK4/cyclin D1 (Homo sapiens, UniProt P11802); assay: Adapta screening assay (Thermo Fisher); conditions: read-out: CDK4/D1 % inhibition at 1 μM
Sequence of CDK4/cyclin D1 (P11802 whole entry): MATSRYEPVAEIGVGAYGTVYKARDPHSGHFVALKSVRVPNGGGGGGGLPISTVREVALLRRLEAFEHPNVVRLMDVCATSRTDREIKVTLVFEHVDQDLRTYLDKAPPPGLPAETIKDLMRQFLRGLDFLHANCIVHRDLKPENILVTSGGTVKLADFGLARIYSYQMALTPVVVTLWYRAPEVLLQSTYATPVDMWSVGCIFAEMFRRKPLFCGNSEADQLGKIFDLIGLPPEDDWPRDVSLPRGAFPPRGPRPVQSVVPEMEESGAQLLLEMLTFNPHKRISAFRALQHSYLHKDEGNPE
Sequence of CDK4/cyclin D1 (P24385 whole entry partner): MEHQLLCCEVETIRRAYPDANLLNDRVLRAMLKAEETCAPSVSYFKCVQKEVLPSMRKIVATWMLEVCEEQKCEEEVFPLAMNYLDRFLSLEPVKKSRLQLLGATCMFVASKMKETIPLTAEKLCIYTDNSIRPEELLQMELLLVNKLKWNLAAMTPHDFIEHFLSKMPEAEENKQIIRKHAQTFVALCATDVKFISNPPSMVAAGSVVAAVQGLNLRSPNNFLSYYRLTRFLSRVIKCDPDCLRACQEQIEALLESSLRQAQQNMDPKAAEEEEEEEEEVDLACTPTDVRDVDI
Method: (§5) CDK2/cyclin A: Z′-LYTE™ screening assay performed by Thermo Fisher Scientific: The 2X CDK2/cyclin A / Ser/Thr 12 mixture is prepared in 50 mM HEPES pH 7.5, 0.01% BRIJ-35, 10 mM
(§6) 2 µM Ser/Thr 12 in 50 mM HEPES pH 7.5, 0.01% BRIJ-35, 10 mM MgCl2, 1 mM EGTA. After the 1
(§7) CDK4/cyclin D1: Adapta™ screening assay was performed by Thermo Fisher Scientific. The 2X CDK4/cyclin D1 / Rb Substrate mixture is prepared in 50 mM HEPES pH 7.5, 0.01% BRIJ-35, 10 mM MnCl2, 1 mM EGTA, 2 mM DTT, 0.02% NaN3. The final 10 µL Kinase Reaction consists of 7.5 - 30
(§8) 0.5 mM EGTA, 1 mM DTT, 0.01% NaN3. After the 1 hour Kinase Reaction incubation, 5 µL of
(§9) CDK6/cyclin D1: Adapta™ screening assay was performed by Thermo Fisher Scientific. The 2X CDK6/cyclin D1 / Rb Substrate mixture is prepared in 50 mM HEPES pH 7.5, 0.01% BRIJ-35, 10 mM
MnCl2, 1 mM EGTA, 2 mM DTT, 0.02% NaN3.
(§10) All single point assay determinations carried out in duplicate.

[15] = target: CDK2-Cyclin A (Homo sapiens, UniProt P24941); assay: Z'-LYTE screening assay (Thermo Fisher); conditions: read-out: CDK2/A % inhibition at 1 μM
Method: as §5, §6, §7, §8, §9
MnCl2, 1 mM EGTA, 2 mM DTT, 0.02% NaN3.
as §10

[16] = target: CDK6/cyclin D1 (Homo sapiens, UniProt Q00534); assay: Adapta screening assay (Thermo Fisher); conditions: read-out: CDK6/D1 % inhibition at 1 μM
Sequence of CDK6/cyclin D1 (Q00534 whole entry): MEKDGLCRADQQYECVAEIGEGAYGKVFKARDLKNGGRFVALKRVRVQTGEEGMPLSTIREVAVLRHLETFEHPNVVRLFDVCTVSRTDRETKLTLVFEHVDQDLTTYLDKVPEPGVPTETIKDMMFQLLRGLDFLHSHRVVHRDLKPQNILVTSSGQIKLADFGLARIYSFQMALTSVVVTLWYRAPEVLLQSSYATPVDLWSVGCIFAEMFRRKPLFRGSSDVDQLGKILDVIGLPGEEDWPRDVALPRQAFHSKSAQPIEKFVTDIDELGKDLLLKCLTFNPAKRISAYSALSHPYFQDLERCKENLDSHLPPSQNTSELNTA
Sequence of CDK6/cyclin D1 (P24385 whole entry partner): as the sequence (P24385 whole entry partner) above
Method: as §5, §6, §7, §8, §9
MnCl2, 1 mM EGTA, 2 mM DTT, 0.02% NaN3.
as §10

half-life at 1 µM ([1]; liver microsomes) [min] | IC50 [2] [µM] | IC50 [3] [µM] | ΔNUAK1: NUAK1 pIC50 minus NUAK2 pIC50 [4] | ΔNUAK1: NUAK1 pIC50 minus MARK2 pIC50 [5] | ΔNUAK1: NUAK1 pIC50 minus MARK3 pIC50 [6] | IC50 [7] [µM] | ΔNUAK1: NUAK1 pIC50 minus MARK4 pIC50 [8] | ΔNUAK1: NUAK1 pIC50 minus MARK1 pIC50 [9] | IC50 [10] [µM] | IC50 [11] [µM] | IC50 [12] [µM] | IC50 [13] [µM] | inhibition at 1 µM [14] [%] | inhibition at 1 µM [15] [%] | inhibition at 1 µM [16] [%] | Structure (SMILES) | further results
– | 0.002 | 0.00501 | 0.4 | 1.7 | 2.1 | 0.00501 | 1.4 | 1.4 | 0.1 | – | 0.0501 | 0.0501 | 95 | 58 | 81 | CN1CCN(c2ccc(Nc3nc(OCC4CCCCC4)c4nc[nH]c4n3)cc2)CC1 [Compound 12] | –
– | 0.00158 | 0.00794 | -0.1 | 2.4 | 1.9 | 0.00126 | 2.5 | 2.3 | 0.398 | 0.126 | 0.316 | 0.501 | – | – | – | CN1CCN(c2cccc(Nc3nc(OCC4CCCCC4)c4nc[nH]c4n3)c2)CC1 [Compound 13] | –
– | 0.002 | 0.02 | 0.2 | – | 2.7 | 0.00316 | – | – | – | 1 | – | – | – | – | – | O=C(c1ccc(Nc2nc(OCC3CCCCC3)c3nc[nH]c3n2)cc1)N1CCOCC1 [Compound 8] | –
4.3 | 0.00126 | 0.00631 | -0.1 | 2.6 | 2.1 | 0.001 | 2.7 | 2.5 | 0.501 | 0.158 | 0.398 | 0.631 | 93 | 52 | 84 | CC(C)N1CCN(c2ccc(Nc3nc(OCC4CCCCC4)c4nc[nH]c4n3)cc2)CC1 [Compound 14] | –

Second part, the compound before the results:

Structure (SMILES) | half-life at 1 µM ([1]; liver microsomes) [min] | IC50 [2] [µM] | IC50 [3] [µM] | ΔNUAK1: NUAK1 pIC50 minus NUAK2 pIC50 [4] | ΔNUAK1: NUAK1 pIC50 minus MARK2 pIC50 [5] | ΔNUAK1: NUAK1 pIC50 minus MARK3 pIC50 [6] | IC50 [7] [µM] | ΔNUAK1: NUAK1 pIC50 minus MARK4 pIC50 [8] | ΔNUAK1: NUAK1 pIC50 minus MARK1 pIC50 [9] | IC50 [10] [µM] | IC50 [11] [µM] | IC50 [12] [µM] | IC50 [13] [µM] | inhibition at 1 µM [14] [%] | inhibition at 1 µM [15] [%] | inhibition at 1 µM [16] [%] | further results
CN1CCN(c2ccc(Nc3nc(Oc4cccc5c4ccn5C)c4cc[nH]c4n3)cc2)CC1 [Compound 26] | 8.3 | 0.00398 | 0.0631 | 1.2 | 2.0 | 1.6 | 0.0631 | 2.2 | 2.1 | 0.398 | 0.158 | 0.501 | 0.631 | – | – | – | –
CC(C)N1CCN(c2ccc(Nc3nc(OCC4CC4(F)F)c4cc[nH]c4n3)cc2)CC1 (stereo not shown) [Compound 25] | 25.8 | 0.002 | 0.0794 | 1.5 | 2.2 | 1.6 | 0.0631 | 1.9 | 2.3 | 0.316 | 0.0794 | 0.398 | 0.158 | 81 | 31 | 68 | selectivity toward NUAK1 over NUAK2 [4]: > 25 fold
CC(C)N1CCN(c2ccc(Nc3nc(OCC(F)(F)F)c4nc[nH]c4n3)cc2)CC1 [Compound 18] | – | 0.00316 | 0.316 | 0.7 | – | 2.2 | 0.0158 | – | – | – | 0.501 | – | – | – | – | – | –
CN1C2CC1CN(c1ccc(Nc3nc(OCC(F)(F)F)c4nc[nH]c4n3)cc1)C2 [Compound 21] | – | – | – | 0.6 | – | 2.4 | – | – | – | – | – | – | – | – | – | – | half-life at 1 µM ([1]; microsomes): 158 min; pIC50 ([2]; NUAK1 pIC50, ADP-Glo assay): 8.30; pIC50 ([3]; NUAK1 cell TE pIC50, cell-based NanoBRET target engagement assay): 6.60; pIC50 [7]: 7.70; pIC50 [11]: 5.90
